This is an account of results in patent US10428056B2, “Heterocyclic compound” (Takeda Pharmaceutical Company Limited, priority 2015, dated 2019).

Each structure is given as a SMILES string.

Test [1] concerns the target T1, human M1 receptor (hCHRM1) (Homo sapiens, UniProt P11229).
T1 construct: expressed in transfected cells; host or cells: CHO-K1
T1 sequence (P11229 1-460): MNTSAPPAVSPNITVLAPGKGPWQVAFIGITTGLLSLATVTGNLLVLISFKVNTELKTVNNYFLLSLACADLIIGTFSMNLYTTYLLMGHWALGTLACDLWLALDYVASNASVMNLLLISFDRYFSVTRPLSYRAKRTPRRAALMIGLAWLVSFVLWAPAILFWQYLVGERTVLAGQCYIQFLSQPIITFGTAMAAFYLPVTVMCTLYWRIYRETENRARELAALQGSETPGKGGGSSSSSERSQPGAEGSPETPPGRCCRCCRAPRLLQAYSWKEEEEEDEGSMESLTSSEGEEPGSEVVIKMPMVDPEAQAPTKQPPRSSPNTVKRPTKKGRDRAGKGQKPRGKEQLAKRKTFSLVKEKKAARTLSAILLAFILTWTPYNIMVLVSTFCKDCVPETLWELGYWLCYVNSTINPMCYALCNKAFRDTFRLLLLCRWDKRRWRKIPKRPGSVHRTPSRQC
The experiment in a line: Measurement of M1 receptor positive allosteric modulator (M1PAM) activity, Ca fluorescence by FLIPRtetra (Experimental Example 1). The class given is cell-based. Particulars: inflection point of concentration-dependent curve, CHO-K1 cells expressing hCHRM1, acetylcholine at EC20 (0.8-1.0 nM), read-out: IP value. As to the method: (§1) Measurement of M1 Receptor Positive Allosteric Modulator (M1PAM) Activity
(§2) The activity of a test compound in the presence of acetylcholine at EC20 concentration (final concentration 0.8-1.0 nM), which affords an action corresponding to about 20% of the maximum activity, was measured as PAM activity. The method is as follows. CHO-K1 cells stably expressing a human M1 receptor (hCHRM1) were plated on a 384-well black clear bottom plate (BD Falcon) at 5,000 cells/well, and cultured in an incubator at 37° C., 5% CO2 for 1 day. […] A test compound prepared by diluting with assay buffer containing 3.2-4.0 nM acetylcholine was added at 10 μL/well, and the fluorescence was measured by FLIPRtetra (Molecular Devices) for 1 min every 1 second. With the definition that the amount of change in the fluorescence on addition of acetylcholine (final concentration 1 μM) is 100% and that on addition of DMSO instead of a test compound is 0%, the activity (%) of the test compound was calculated, and the inflection point in the concentration-dependent curve of the test compound was calculated as IP values.

Test [2] has as its system Scopolamine-induced memory deficits models. Kind of test: Novel object recognition test (Experimental Example 4). It is filed as in vivo, male Long-Evans rats. Conditions: 10 mg/kg oral single dose, scopolamine 0.1 mg/kg s.c.; retention trial 4 hr after acquisition; mean±standard error. The procedure: Novel Object Recognition Test Novel object recognition test is comprised of two trials called the acquisition and the retention trials. Scopolamine-induced memory deficits models were used for the test, and animals used were male Long-Evans rats. On the day before the test, for acclimation, the rats were allowed to freely move about the test box (40×40×50 cm) for 10 minutes. On the test day, the rats were acclimated to the test room for about 1 hr prior to the test. The test compounds were orally administered to the rats in a single dose a given time before the acquisition trial. For induction of learning and memory deficits, scopolamine (0.1 mg/kg) was subcutaneously administered into the rats 30 min before the acquisition trial. For the acquisition trial, two identical objects (A1, A2) were placed in the test box. The rats were put in the test box for 3 min, and the duration exploring each object was measured. The retention trial was performed 4 hr after the acquisition trial. […] The duration for exploring each object in the acquisition trial and the retention trial was measured, and the exploration rate of novel object was calculated. The exploration rate of novel object was expressed as (the duration exploring the novel object)/[(the duration exploring the novel object)+(the duration exploring the familiar object)]×100(%) at mean±standard error.

Test [3] has as its target T1, human M1 receptor (hCHRM1). Kind of test: Measurement of M1 receptor positive allosteric modulator (M1PAM) activity, Ca fluorescence by FDSS/μ cell (Experimental Example 2). It is filed as cell-based. Conditions: inflection point of concentration-dependent curve, CHO-K1 cells expressing hCHRM1, acetylcholine at EC20 (0.8-1.0 nM), read-out: IP value. As to the method: as §1
as §2, with “FDSS/μ cell (Hamamatsu Photonics K.K.)” for “FLIPRtetra (Molecular Devices)”

Turning to `Cc1cc2c(cc1Cc1ccc(Cl)nc1)C(=O)N([C@H]1CCCC[C@@H]1O)CO2` (relative stereo) [Example 62, 6-((6-chloropyridin-3-yl)methyl)-3-(trans-2-hydroxycyclohexyl)-7-methyl-2,3-dihydro-4H-1,3-benzoxazin-4-one], the EC50 in test [1] is 27 nM.

Regarding `Cc1ccc(Cc2cc3c(cc2C)OCN([C@H]2CCCC[C@@H]2O)C3=O)cn1` (single isomer, unassigned) [Example 28, 3-(trans-2-hydroxycyclohexyl)-7-methyl-6-((6-methylpyridin-3-yl)methyl)-2,3-dihydro-4H-1,3-benzoxazin-4-one], the “exploration rate of novel object (%)” value in test [2] is 56.0±2.2%.

As to `Cc1c(Cc2ccc(-n3cccn3)nc2)cc2c(c1Cl)OCN([C@H]1CCC[C@@H]1O)C2=O` (single isomer, unassigned) [Example 97, 8-chloro-3-(trans-2-hydroxycyclopentyl)-7-methyl-6-((6-(1H-pyrazol-1-yl)pyridin-3-yl)methyl)-2,3-dihydro-4H-1,3-benzoxazin-4-one], the EC50 in test [3] came out at 6.8 nM.
